Assay results as given in PubChem BioAssay (NCI).
Values joined by “and” are separate entries in the source; they are usually repeats but may differ in a detail not shown here. Equal values may be shown once.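 Method: 48-hour compound exposure of cells in 96-well plates, five concentrations, linear interpolation of endpoints. Here, GI50 denotes the concentration required for 50% inhibition of growth. Definition used: TGI = concentration required for complete inhibition of growth.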

Assays:
Test in all cases: NCI-60 cell line screen, 48 h
COLO 205 colon = test system: COLO 205 colon
DU-145 prostate = test system: DU-145 prostate
HOP-62 NSCLC = test system: HOP-62 NSCLC
HT29 colon = test system: HT29 colon
IGROV1 ovarian = test system: IGROV1 ovarian
MALME-3M melanoma = test system: MALME-3M melanoma
M14 melanoma = test system: M14 melanoma
PC-3 prostate = test system: PC-3 prostate
CAKI-1 renal = test system: CAKI-1 renal
UO-31 renal = test system: UO-31 renal

Row | Structure (SMILES) | GI50 (COLO 205 colon) | GI50 (DU-145 prostate) | TGI (DU-145 prostate) | TGI (HOP-62 NSCLC) | GI50 (HT29 colon) | TGI (HT29 colon) | GI50 (IGROV1 ovarian) | TGI (IGROV1 ovarian) | GI50 (MALME-3M melanoma) | TGI (MALME-3M melanoma) | TGI (M14 melanoma) | GI50 (PC-3 prostate) | TGI (PC-3 prostate) | GI50 (CAKI-1 renal) | TGI (CAKI-1 renal) | TGI (UO-31 renal) | TGI (COLO 205 colon) | GI50 (UO-31 renal) | GI50 (HOP-62 NSCLC) | GI50 (M14 melanoma)
1 | S=C(N/N=C(/c1ccccc1)c1ccccn1)N1CCCCCC1 | < 0.001 µM | 1.03 µM | 2.19 µM and 2.15 µM | 1.91 µM | 7.24 nM | 3.41 µM and 1.8 µM | < 1 nM | 1.06 µM and 1.98 µM | 0.0392 µM | 1.96 µM and 2.01 µM | 1.47 µM and 0.26 µM | < 1 nM | 1.37 µM and 1.52 µM | 0.131 µM | 1.87 µM and 2.02 µM | 1.75 µM |  |  |  | 
2 | CCCCCCCCCCCCCCCCOP(=O)(O)OP(=O)(O)OCC1OC(n2ccc(N)nc2=O)C(O)C1O (stereo not drawn) |  |  | > 100 µM | > 100 µM |  | > 100 µM |  | > 100 µM | > 100 µM and 46.7 µM | > 100 µM | > 100 µM and 98.4 µM |  | > 100 µM | > 100 µM and 26.1 µM | > 100 µM | > 100 µM | > 100 µM | > 100 µM and 21.8 µM |  | 
3 | CNC(=O)Oc1cc(C)c(/C=C/c2cncc(C(=O)NC)c2)c(C)c1 | > 25 µM | > 25 µM | > 25 µM | > 25 µM | > 25000 nM | > 25 µM | > 23200 nM | > 25 µM | 13.6 µM | > 25 µM | > 25 µM | > 25000 nM | > 25 µM | > 25 µM | > 25 µM | > 25 µM | > 25 µM | 13.3 µM | > 22300 nM | 16.8 µM
4 | CN(C)CCCNC(=O)c1cncnc1Nc1ccc(OCc2cccc(F)c2)c(Cl)c1 | 1.79 µM | 1.76 µM | 3.2 µM | 3.48 µM | 1710 nM | 3.34 µM | 1780 nM | 3.33 µM | 1.64 µM | 3.02 µM | 3.38 µM | 1580 nM | 3.11 µM | 1.66 µM | 3.05 µM | 2.77 µM | 3.57 µM | 1.46 µM | 1750 nM | 1.71 µM
5 | CCN(CC)CCCC(C)N=c1cc(Nc2cc(=NC(C)CCCN(CC)CC)c3cc(OC)ccc3o2)oc2ccc(OC)cc12 (stereo not drawn) | 0.632 µM | 1.17 µM | 3.19 µM | 2.16 µM | 588 nM | 1.97 µM | 1890 nM | 8.72 µM | 0.937 µM | 1.74 µM | 1.79 µM | 1490 nM | 6.8 µM | 1.34 µM | 5.75 µM | 4.9 µM | 1.36 µM | 0.874 µM | 734 nM | 0.967 µM
6 | CC1(C)CCC(C)(C)c2c1ccc(O)c2Cc1c(O)ccc2c1C(C)(C)CCC2(C)C |  |  | 5.45 µM | 4.1 µM |  | 4.4 µM |  | 3.68 µM |  | 6.6 µM | 3.75 µM |  | 3.79 µM |  | 4.2 µM | 4.04 µM | 4.44 µM |  |  | 
7 | O=c1c2c3c(sc2nc(N/N=C/c2ccc(Br)cc2)n1Cc1ccccc1)CCCC3 | 5.88 µM | 90.9 µM | > 100 µM | > 100 µM | > 100000 nM | > 100 µM | 58700 nM | > 100 µM | 42.7 µM | > 100 µM | > 100 µM | 6640 nM | > 100 µM | 74.3 µM | > 100 µM | > 100 µM | > 100 µM | 86.6 µM | 7700 nM | 9.15 µM
8 | CC(=O)Oc1cc2c(OC(C)=O)c(-c3c(C)cc4c(C(C)C)c(OC(C)=O)c(OC(C)=O)cc4c3OC(C)=O)c(C)cc2c(C(C)C)c1OC(C)=O | 9.61 µM and 5.5 µM and 10.1 µM | 5.3 µM and 5.17 µM and 9.94 µM | 11.1 µM and 10.2 µM and 23.6 µM | 18.8 µM and 11.7 µM and 24.1 µM |  | 40.2 µM and > 74.8 µM and 62.7 µM | 16200 nM and 3270 nM and 25800 nM | 33.9 µM and 9.86 µM and 57.5 µM | 5.49 µM and 5.36 µM and 9.03 µM | 13.8 µM and 13.7 µM and 23.7 µM | 18.5 µM and 12.5 µM and 19.3 µM | 5480 nM and 5870 nM and 9870 nM | 10.9 µM and 12.1 µM and 23.2 µM | 7.61 µM and 6.16 µM and 11.5 µM | 21.9 µM and 13.1 µM and 30.9 µM | 13.3 µM and 11.9 µM and 33.8 µM | 13 µM and 21.3 µM | 5.73 µM and 5.67 µM and 11.8 µM | 6670 nM and 5170 nM and 8710 nM | 6.75 µM and 5.89 µM and 8.15 µM
9 | COc1cc(-c2ncn(/C=C\C(=O)OC(C)C)n2)cc(C(F)(F)F)c1 | 0.0432 µM and 0.0437 µM | 0.238 µM and 0.2 µM | 12.5 µM and 11.7 µM | 3.46 µM and 3.94 µM | 47.4 nM and 89.6 nM | 12.3 µM and 3.01 µM | 503 nM and 171 nM | 15.8 µM and 15.6 µM | 0.149 µM and 0.147 µM | 12.9 µM and 15.3 µM | 4.74 µM and 14.5 µM | 106 nM and 58.4 nM | 14.9 µM and 12.8 µM | 0.0464 µM and 0.0331 µM | 12.7 µM and 5.52 µM | 4.18 µM and 11.7 µM | 1.28 µM and 1.46 µM | 0.0569 µM and 0.0489 µM | 295 nM and 262 nM | 0.228 µM and 0.35 µM
10 | COc1ccc2c(c1OC)OCC(CN(C)C)C2=O (stereo not drawn) |  |  | 34.5 µM | > 88.7 µM |  | 40.1 µM |  | 35.4 µM |  | 34.8 µM | 31.5 µM |  | 34.6 µM |  | 11.3 µM | 32.5 µM | 21.6 µM |  |  | 
11 | O=S(=O)(Nc1cc(Cl)ccc1Cl)c1ccc(-c2cnc(C3CC3)o2)cc1 | 1.84 µM | 3.72 µM | > 100 µM | 27.5 µM | 654 nM | 13.5 µM | 673 nM | > 100 µM | 10.8 µM | 57.6 µM | 10.5 µM | 563 nM | 17 µM | 0.647 µM | 52.1 µM | 43.5 µM | 13.4 µM | 2.49 µM | 1640 nM | 0.547 µM
12 | COc1ccc(CNc2nc3cc(N)cc(N)c3nc2-c2ccccc2)cc1 | 15.5 µM | 21.7 µM | 58 µM | 34.3 µM | 24500 nM | 60.2 µM | 12900 nM | 27.1 µM | 10.7 µM | 22.5 µM | 32.2 µM | 10300 nM | 27.3 µM | 16.3 µM | 35.9 µM | 28.7 µM | 34.1 µM | 11.4 µM | 17200 nM | 18.1 µM
13 | COc1cc(OC)c(NC(=O)c2cc3ccccc3cc2O)cc1Cl | 3.91 µM | 3.72 µM | 38.2 µM | 6.84 µM | 4880 nM | 30.1 µM | 2030 nM | 11.2 µM | 1.89 µM | 6.04 µM | 13.1 µM | 2130 nM | 8.02 µM | 1.9 µM | 6.68 µM | 8.33 µM | 14.5 µM | 1.71 µM | 1980 nM | 3.03 µM
